Assay results: PubChem BioAssay (NCI)
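Exposure lasted 48 hours, with cells grown in 96-well plates and compounds tested at five concentrations. At the TGI there is no net growth.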

Key:
Assay in all cases: growth of human tumour cells (NCI), 48 h
CAKI-1 renal = test system: CAKI-1 renal
HCT-116 colon = test system: HCT-116 colon
LOX IMVI melanoma = test system: LOX IMVI melanoma
UO-31 renal = test system: UO-31 renal
SK-MEL-2 melanoma = test system: SK-MEL-2 melanoma
KM12 colon = test system: KM12 colon
MDA-MB-435 = test system: MDA-MB-435
EKVX NSCLC = test system: EKVX NSCLC
A549 NSCLC = test system: A549 NSCLC
HOP-62 NSCLC = test system: HOP-62 NSCLC
RXF 393 renal = test system: RXF 393 renal
SN12C renal = test system: SN12C renal
RPMI-8226 leukemia = test system: RPMI-8226 leukemia
OVCAR-4 ovarian = test system: OVCAR-4 ovarian
CCRF-CEM leukemia = test system: CCRF-CEM leukemia
BT-549 breast = test system: BT-549 breast
SF-295 CNS = test system: SF-295 CNS
NCI-H460 lung = test system: NCI-H460 lung
NCI-H23 lung = test system: NCI-H23 lung
SNB-75 CNS = test system: SNB-75 CNS

Row | Structure (SMILES) | TGI (CAKI-1 renal) | TGI (HCT-116 colon) | TGI (LOX IMVI melanoma) | TGI (UO-31 renal) | TGI (SK-MEL-2 melanoma) | TGI (KM12 colon) | TGI (MDA-MB-435) | TGI (EKVX NSCLC) | TGI (A549 NSCLC) | TGI (HOP-62 NSCLC) | TGI (RXF 393 renal) | TGI (SN12C renal) | TGI (RPMI-8226 leukemia) | TGI (OVCAR-4 ovarian) | TGI (CCRF-CEM leukemia) | TGI (BT-549 breast) | TGI (SF-295 CNS) | TGI (NCI-H460 lung) | TGI (NCI-H23 lung) | TGI (SNB-75 CNS)
1 | CN1C/C(=C\c2cccs2)C2=NN(C)C(c3cccs3)C2C1 (centres undefined) | > 100 µM | > 100 µM | > 100 µM | > 100 µM | 81.2 µM | > 100 µM | > 100 µM | > 100 µM | > 100 µM | > 100 µM | > 100 µM | > 100 µM | 95.3 µM | > 100 µM | > 100 µM | > 100 µM | > 100 µM | > 100 µM | > 100 µM | –
2 | Oc1cc2c3c(c1)CCCN3CCC2 | > 10 µM | > 10 µM | > 10 µM | – | > 10 µM | > 10 µM | > 10 µM | > 10 µM | > 10 µM | > 10 µM | > 10 µM | > 10 µM | > 10 µM | > 10 µM | > 10 µM | > 10 µM | > 10 µM | > 10 µM | > 10 µM | > 10 µM
3 | O=C(O)C1CCCCC1C(=O)Nn1cnnc1 (centres undefined) | – | > 100 µM | > 100 µM | > 100 µM | > 100 µM | > 100 µM | > 100 µM | > 100 µM | > 100 µM | > 100 µM | > 100 µM | > 100 µM | > 100 µM | > 100 µM | > 100 µM | > 100 µM | > 100 µM | – | > 100 µM | > 100 µM
4 | CCC(C(=O)C(=O)C(CC)P1(=O)OC(C)(C)CN1C(C)(C)C)P1(=O)OC(C)(C)CN1C(C)(C)C (centres undefined) | > 100 µM | > 100 µM | > 100 µM | > 100 µM | > 100 µM | > 100 µM | > 100 µM | > 100 µM | > 100 µM | > 100 µM | > 100 µM | > 100 µM | > 100 µM | – | > 100 µM | > 100 µM | > 100 µM | > 100 µM | > 100 µM | > 100 µM
5 | COC(=O)c1ccc(NC(=O)O/N=C(\Cl)C(C)C)cc1 | 3.08 µM | 17.2 µM | 4.02 µM | 28.7 µM | 31.5 µM | 30.2 µM | 25.5 µM | 10.9 µM | 43.2 µM | 32.9 µM | 19.6 µM | 13.9 µM | 4.47 µM | 32 µM | – | 8.94 µM | 33.3 µM | 41.2 µM | 39.3 µM | 26.3 µM
6 | CCCSc1ccc2[nH]c(/N=C/c3ccccc3)cc2c1 | > 100 µM | 39.8 µM | 32.5 µM | > 100 µM | 32.2 µM | – | > 100 µM | 76.2 µM | – | – | 42.7 µM | 45.7 µM | 48.3 µM | 88.2 µM | 64.4 µM | 97.2 µM | – | – | > 100 µM | > 100 µM
